Data as given in patent US20260325504A1, “Genetically Engineered Human Pituitary Corticotroph Tumor Organoids Exhibit Divergent Responses to Selective Glucocorticoid Receptor Modulators” (Corcept Therapeutics Incorporated, priority 2022, published 2026).
Where two headings read alike, the source gives them in different places.

Key:
[1] = system: pancreatic cancer cell lines; settings: in vitro; cited from earlier work
[2] = system: androgen receptor; settings: cited from earlier work
[3] = system: glucocorticoid receptor (GR); settings: cited from earlier work
[4] = system: iPSC^USP48MV organoids; test: ACTH secretion ELISA, iPSCUSP48 organoids; type: cell-based, human; settings: text: iPSCUSP48MI; FIG. 7G: iPSCUSP48MV; 500 nM, 48 h
Method: (§1) Sonic Hedgehog (SHH) was withdrawn from the organoid growth media 16 hours prior to treatment. The experimental treatment groups included: vehicle (Veh), mifepristone (500 nM, Selleckchem S2606), GANT61 (5 μM, Stemcell Technologies 73692), ketoconazole (Keto, 10 μM, Selleckchem S1353), pasireotide (Pas, 100 nM, Target Mol TP2207-SB001), octreotide (Oct, 100 nM, Selleckchem P1017), mifepristone plus GANT61, mifepristone plus Keto, mifepristone plus Pas, relacorilant (500 nM, Corcept Therapeutics CORT125134), relacorilant plus Pas, relacorilant plus Oct, or dexamethasone (Dexa, 100 nM, SIGMA S4902). In the combination treatments, cultures were pretreated with the GANT61, Keto, Pas or Oct for 2 hours prior to treatment with mifepristone or Rela. PitNET tissue derived organoids hPITO36, hPITO37, hPITO38, hPITO39, and hPITO40 were treated with the following experimental conditions: Vehicle (1), pasireotide (2), relacorilant (3), relacorilant & pasireotide (4), mifepristone (5), mifepristone & pasireotide (6). The IC50 values used for each hPITO line for each drug were determined based on dose responses (FIG. 12). All organoid cultures were treated for 48 hours prior to analysis.
(§2) Organoid conditioned media was collected and ACTH secretion using an ELISA according to the manufacturer's protocol (Novus Biologicals Human ACTH ELISA Kit NBP2-66401). The optical density was measured at a wavelength of 450 nm, and ACTH concentration (pg/mL) was interpolated using a standard curve with a 4-parameter logistic regression analysis using GraphPad Prism (v9.3.1).

[5] = system: iPSC^ctrl organoids; test: ACTH secretion ELISA, iPSCctrl organoids; type: cell-based, human; settings: 500 nM, 48 h, FIG. 6G
Method: as §1, §2

Compound | apoptosis [1] | binding to the androgen receptor [2] | binding to the glucocorticoid receptor [3] | binding to the glucocorticoid receptor ([3]; listed as Mifepristone) | magnitude of ACTH secretion, mifepristone vs relacorilant [4] | magnitude of ACTH secretion, mifepristone vs relacorilant [5]
Cn1cc(S(=O)(=O)N2CCC3=Cc4c(cnn4-c4ccc(F)cc4)C[C@]3(C(=O)c3cc(C(F)(F)F)ccn3)C2)cn1 [relacorilant, (R)-(1-(4-fluorophenyl)-6-((1-methyl-1H-pyrazol-4-yl)sulfonyl)-4,4a,5,6,7,8-hexahydro-1H-pyrazolo[3,4-g]isoquinolin-4a-yl) (4-(trifluoromethyl)pyridin-2-yl) methanone] | induces apoptosis | no detectable binding | – | – | – | –
CC#C[C@]1(O)CC[C@H]2[C@@H]3CCC4=CC(=O)CCC4=C3[C@@H](c3ccc(N(C)C)cc3)C[C@@]21C [mifepristone, 11β-(4-dimethylaminophenyl)-17ß-hydroxy-17α-(1-propynyl)-estra-4,9-dien-3-one] | – | – | competes with cortisol binding at the GR | typically with high affinity | significantly greater than the effect of relacorilant | significantly greater than the effect of relacorilant
